Test results as given in US20080096807A1, “Cyclic vasoactive intestinal peptide receptor-2 agonists” (priority 2006, published 2008).
Bridge positions count the residues as written; N and C are the ends. Square brackets hold non-standard residues; d marks the D form. Peptide text beside a SMILES is read from it. ξ: configuration not given here. Thr(3ξ) = CC(O)[C@H](N)C(=O)O; αMeV = CC(C)[C@](C)(N)C(=O)O; Nle = CCCC[C@H](N)C(=O)O

target: T1, human neutrophil elastase (Homo sapiens, UniProt P08246); experiment: Peptide stability to neutrophil elastase (RP HPLC ESI MS); conditions: halftime with human neutrophil elastase 1 to 2 μg/mL in PBS, ambient temperature, normalized to halftime of the reference standard
T1 sequence (P08246 30-247 limits assumed): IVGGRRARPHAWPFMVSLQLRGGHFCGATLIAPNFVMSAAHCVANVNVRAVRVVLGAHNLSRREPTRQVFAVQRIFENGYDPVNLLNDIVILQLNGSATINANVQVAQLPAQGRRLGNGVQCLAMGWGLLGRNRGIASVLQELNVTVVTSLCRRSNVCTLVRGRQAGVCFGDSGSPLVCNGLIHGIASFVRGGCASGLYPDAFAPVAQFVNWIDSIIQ

Compound	Relative elastase stability
CCCC[C@H](NC(=O)[C@H](CCC(N)=O)NC(=O)[C@H](CCCCN)NC(=O)[C@H](CCCNC(=N)N)NC(=O)[C@H](CC(C)C)NC(=O)[C@H](CCCCN)NC(=O)[C@@H](NC(=O)[C@H](Cc1ccc(O)cc1)NC(=O)[C@H](CC(N)=O)NC(=O)[C@H](CCC(=O)O)NC(=O)[C@@H](NC(=O)[C@H](Cc1ccccc1)NC(=O)[C@@](C)(NC(=O)[C@H](C)NC(=O)[C@H](CC(=O)O)NC(=O)[C@H](CO)NC(=O)[C@H](Cc1c[nH]cn1)NC(C)=O)C(C)C)C(C)O)C(C)O)C(=O)N[C@@H](C)C(=O)N[C@@H](C)C(=O)N[C@@H](CCCCN)C(=O)N[C@H]1CCCCNC(=O)C[C@@H](C(=O)N[C@@H](CC(C)C)C(=O)N[C@@H](CC(C)C)C(=O)N[C@@H](CCCCN)C(=O)NCC(=O)NCC(=O)N[C@H](C(N)=O)C(C)O)NC(=O)[C@H](CC(N)=O)NC(=O)[C@H](CC(C)C)NC(=O)[C@H](Cc2ccc(O)cc2)NC1=O (stereo partly drawn) [Example 20, Ac-His-Ser-Asp-Ala-MeVal-Phe-Thr-Glu-Asn-Tyr-thr-Lys-Leu-Arg-Lys-Gln-Nle-Ala-Ala-Lys-Lys-Tyr-Leu-Asn-Asp-Leu-Leu-Lys-Gly-Gly-Thr-NH2] (Ac-HSDA[αMeV]F[Thr(3ξ)]ENY[Thr(3ξ)]KLRKQ[Nle]AAKKYLNDLLKGG[Thr(3ξ)]-NH2; lactam 21-25)	3.4
CCCC[C@H](NC(=O)[C@H](CCCNC(=N)N)NC(=O)[C@H](CCCCN)NC(=O)[C@H](CCCNC(=N)N)NC(=O)[C@H](CC(C)C)NC(=O)[C@H](CCCCN)NC(=O)[C@@H](NC(=O)[C@H](Cc1ccc(O)cc1)NC(=O)[C@H](CC(N)=O)NC(=O)[C@H](CCC(=O)O)NC(=O)[C@@H](NC(=O)[C@H](Cc1ccccc1)NC(=O)[C@@](C)(NC(=O)[C@H](C)NC(=O)[C@H](CC(=O)O)NC(=O)[C@H](CO)NC(=O)[C@H](Cc1c[nH]cn1)NC(C)=O)C(C)C)C(C)O)C(C)O)C(=O)N[C@@H](C)C(=O)N[C@@H](C)C(=O)N[C@@H](CCCCN)C(=O)N[C@H]1CCCCNC(=O)C[C@@H](C(=O)N[C@@H](CC(C)C)C(=O)N[C@@H](CCCCN)C(=O)N[C@@H](CCCCN)C(=O)NCC(=O)NCC(=O)N[C@H](C(N)=O)C(C)O)NC(=O)[C@H](CC(N)=O)NC(=O)[C@H](CC(C)C)NC(=O)[C@H](Cc2ccc(O)cc2)NC1=O (stereo partly drawn) [Example 22, Ac-His-Ser-Asp-Ala-MeVal-Phe-Thr-Glu-Asn-Tyr-Thr-Lys-Leu-Arg-Lys-Arg-Nle-Ala-Ala-Lys-Lys-Tyr-Leu-Asn-Asp-Leu-Lys-Lys-Gly-Gly-Thr-NH2]	1.8
CCCC[C@H](NC(=O)[C@H](CCC(N)=O)NC(=O)[C@H](CCCCN)NC(=O)[C@H](CCCNC(=N)N)NC(=O)[C@H](CC(C)C)NC(=O)[C@H](CCCCN)NC(=O)[C@@H](NC(=O)[C@H](Cc1ccc(O)cc1)NC(=O)[C@H](CC(N)=O)NC(=O)[C@H](CCC(=O)O)NC(=O)[C@@H](NC(=O)[C@H](Cc1ccccc1)NC(=O)[C@@](C)(NC(=O)[C@H](C)NC(=O)[C@H](CC(=O)O)NC(=O)[C@H](C)NC(=O)[C@H](Cc1c[nH]cn1)NC(C)=O)C(C)C)C(C)O)C(C)O)C(=O)N[C@@H](C)C(=O)N[C@@H](C)C(=O)N[C@@H](CCCCN)C(=O)N[C@H]1CCCCNC(=O)C[C@@H](C(=O)N[C@@H](CC(C)C)C(=O)N[C@@H](CCCCN)C(=O)N[C@@H](CCCCN)C(=O)NCC(=O)NCC(=O)N[C@H](C(N)=O)C(C)O)NC(=O)[C@H](CC(N)=O)NC(=O)[C@H](CC(C)C)NC(=O)[C@H](Cc2ccc(O)cc2)NC1=O (stereo partly drawn) [Example 21, Ac-His-Ala-Asp-Ala-MeVal-Phe-Thr-Glu-Asn-Tyr-Thr-Lys-Leu-Arg-Lys-Gln-Nle-Ala-Ala-Lys-Lys-Tyr-Leu-Asn-Asp-Leu-Lys-Lys-Gly-Gly-Thr-NH2]	5.7
CCCC[C@H](NC(=O)[C@H](CCC(N)=O)NC(=O)[C@H](CCCCN)NC(=O)[C@H](CCCNC(=N)N)NC(=O)[C@H](CC(C)C)NC(=O)[C@H](CCCCN)NC(=O)[C@@H](NC(=O)[C@H](Cc1ccc(O)cc1)NC(=O)[C@H](CC(N)=O)NC(=O)[C@H](CCC(=O)O)NC(=O)[C@@H](NC(=O)[C@H](Cc1ccccc1)NC(=O)[C@@](C)(NC(=O)[C@H](C)NC(=O)[C@H](CC(=O)O)NC(=O)[C@H](C)NC(=O)[C@H](Cc1c[nH]cn1)NC(C)=O)C(C)C)C(C)O)C(C)O)C(=O)N[C@@H](C)C(=O)N[C@@H](C)C(=O)N[C@@H](CCCCN)C(=O)N[C@H]1CCCCNC(=O)C[C@@H](C(=O)N[C@@H](CC(C)C)C(=O)N[C@@H](CC(C)C)C(=O)N[C@@H](CCCCN)C(=O)NCC(=O)NCC(=O)N[C@H](C(N)=O)C(C)O)NC(=O)[C@H](CC(N)=O)NC(=O)[C@H](CC(C)C)NC(=O)[C@H](Cc2ccc(O)cc2)NC1=O (stereo partly drawn) [Example 23, Ac-His-Ala-Asp-Ala-MeVal-Phe-Thr-Glu-Asn-Tyr-Thr-Lys-Leu-Arg-Lys-Gln-Nle-Ala-Ala-Lys-Lys-Tyr-Leu-Asn-Asp-Leu-Leu-Lys-Gly-Gly-Thr-NH2]	3.6
